For orientation: half-life means the time in which the quantity being followed falls by half.

The values below come from patent US12350473B2 (priority 2018, dated 2025).

SMILES strings stand for the structures. Read-outs that look alike come from different tables or passages of the source.

For data set [1] the following is noted: in vivo; cited from earlier work.
For data set [2] the following is noted: in vivo, cited from earlier work.
Data set [3] deals with quadriceps femoris muscle injection site. The data set is described as follows: Example 13: GLP local tolerance study of naloxone following intramuscular injection. It counts as in vivo, New Zealand White Rabbits. As to conditions: for injection site findings: 7-day observation. The method, then:
Mortality and clinical observations were recorded twice daily. […] On Day 8, the animals were euthanized and subject to a necropsy examination. A full tissue list was preserved, but only the test site and contralateral site in the other quadriceps femoris were processed for histopathological evaluation.

Data set [4] deals with morphine effects. The following applies: cited from earlier work.
For data set [5], the system named is respiratory depression. As to conditions: IV morphine […] reversed with naloxone 0.4 mg; cited from earlier work.
The conditions of data set [6]: in vivo; cited from earlier work. This is another data set of the same source.
Data set [7] concerns opioid overdose. The data set is described as follows: Examples 10-12: high dose naloxone injection in emergency room opioid overdose cases. It counts as in vivo, human. How it is done:
(§1) A person is admitted to a local emergency room suffering from an opioid overdose. A high dose naloxone composition is administered by injection to the person.
as §1

In data set [8] the test system is buprenorphine intravenous induced respiratory depression. The following applies: 5 mg and 10 mg naloxone intravenously; cited from earlier work.

For `CC(=O)Oc1ccc2c3c1O[C@H]1[C@@H](OC(C)=O)C=C[C@H]4[C@@H](C2)N(C)CC[C@@]341` [heroin], the half-life in data set [1] is 3 to 7 h.

For the molecule `CN1CC[C@]23c4c5ccc(O)c4O[C@H]2[C@@H](O)C=C[C@H]3[C@H]1C5` [morphine], the analgesic onset in data set [2] (iv) is 6 min. Also, the duration of action was 96 min in data set [2] (iv) and “Longer” in data set [2].

Consider `C=CCN1CC[C@]23c4c5ccc(O)c4O[C@H]2C(=O)CC[C@@]3(O)[C@H]1C5` [naloxone], for which the “erythema at injection site” value in data set [3] (males receiving 15 mg/animal, attributed to the shaving procedure) is on record as “low incidence of slight erythema”. In addition, the “histology: effect on the examined tissue” value in data set [3] (rabbits, 5 mg/0.5 mL three times (15 mg total dose), Day 8 necropsy) is listed as “no evidence”. Besides, the injection site findings result in data set [3] (rabbits, IM injection in 3 sites each 2 mg/0.4 mL (total 6 mg)) is reported as “no injection site findings attributed to treatment”; in data set [3] (rabbits, IM injection in 3 sites each 5 mg/0.5 mL (total 15 mg)), “no injection site findings attributed to treatment”. For the same molecule, the “reversal of morphine effects at the 30 mg dose” value in data set [4] (30 mg i.m. naloxone) is reported as “no additional reversal”. The “naloxone dose up to which reversal of the morphine effects was dose related” value in data set [4] (intra-muscular, 70 kg subject, morphine 18 or 30 mg/70 kg i.m.) was “up to 10 mg”. Besides, the “return to severe respiratory depression after reversal” value in data set [5] is at most 30 min. In addition, in data set [6], the distribution half-life was 4.7 min. Moreover, in data set [6], the “elimination half-life (average)” value was 1.08 h. In addition, the “outcome of opioid overdose” value is on record as “recovers from the overdose event” in data set [7] (Example 10: person, 5 mg in a single injection); “recovers from the overdose event” in data set [7] (Example 11: person, 10 mg in a single injection); “recovers from the overdose event” in data set [7] (Example 12: person, 20 mg in a single injection). The “reversal of opioid effects” value in data set [8] was “Complete reversal”.
